The results in this text go back to PMC11173382, “In Vitro Investigations into the Potential Drug Interactions of Pseudoginsenoside DQ Mediated by Cytochrome P450 and Human Drug Transporters” (Molecules, 2024).

Structures are written as SMILES.

In this assay the target is T1, CYP2B6 (Homo sapiens, UniProt P20813).
T1 construct: tissue Corning 452117; host or cells: human liver microsomes
T1 sequence (P20813 1-491): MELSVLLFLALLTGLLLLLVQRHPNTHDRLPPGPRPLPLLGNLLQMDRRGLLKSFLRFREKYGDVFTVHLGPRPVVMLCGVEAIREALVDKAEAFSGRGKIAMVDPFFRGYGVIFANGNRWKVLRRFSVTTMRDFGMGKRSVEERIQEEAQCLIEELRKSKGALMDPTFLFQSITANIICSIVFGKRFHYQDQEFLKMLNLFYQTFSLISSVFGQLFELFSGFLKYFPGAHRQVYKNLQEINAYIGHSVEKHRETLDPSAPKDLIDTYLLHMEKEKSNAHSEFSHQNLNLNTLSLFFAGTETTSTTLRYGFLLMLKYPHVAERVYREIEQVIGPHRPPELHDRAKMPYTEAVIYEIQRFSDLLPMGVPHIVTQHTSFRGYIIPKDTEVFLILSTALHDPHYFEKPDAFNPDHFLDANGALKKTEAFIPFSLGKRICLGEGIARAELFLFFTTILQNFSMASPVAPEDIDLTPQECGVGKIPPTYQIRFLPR
Put plainly: CYP450 inhibition assay in human liver microsomes, CYP2B6. The format is in vitro ADME. The following applies: HLM 0.1 mg/mL; probe bupropion 80 µM; 10 min. As for the experimental part:
To evaluate the reliability and reproducibility of the CYP450 inhibition assay, we measured the inhibitory effects of selected positive control inhibitors of each CYP450 enzyme in human liver microsomes (HLM, Table 1, Figure 2). The potency of inhibition was estimated by observing the alteration in concentration of metabolites of CYP450 substrates (Table 1).
Reagents preparation. […] The stock solution of PDQ (10 mM) was prepared with methanol and further diluted to the range of 3 µM to 3 mM with methanol to ensure that the solvent of different PDQ samples contained the same amount (1%) of methanol.
The stock solutions of the positive control inhibitors and the probe substrates of CYP450 enzymes were prepared in methanol.
CYP450 inhibition assay. […] The assay was conducted in polypropylene 96-well plates (2.2 mL/well, Apricot Designs Inc., Covina, CA, USA).
The total volume of the reaction is 200 μL. […] The substrates and analytes were analyzed by LC-MS/MS (API4000, Applied Biosystems, Singapore; HPLC, Shimadzu, Japan). […]
Data analysis. […] The IC50 was determined by fitting the dependence of the relative remaining activity (y = Vi/V0) to the following three-parameter equation (Equation (1)). […]
(In general: Liver microsomes are vesicles of endoplasmic reticulum, rich in cytochrome P450 enzymes.)

The compound `CC(C)(O)[C@@H]1CC[C@@](C)([C@H]2CC[C@]3(C)[C@@H]2[C@H](O)C[C@@H]2[C@@]4(C)CC[C@H](O)C(C)(C)[C@@H]4CC[C@]23C)O1` [PDQ, (20S,24S)-dammar-20,24-epoxy-3β, 12β, 25-triol] gave an IC50 of 45.3 µM.

The term IC50 denotes the concentration that inhibits the measured activity by half. High values mean a need for much substance, low ones inhibition by little substance.
